From US6743753B2, “Herbicidal compositions” (priority 1998, dated 2004)

Experiments:
Format in all cases: in vivo
Conditions in all cases: 28 DAT
[1] = tested on: Leptochloa chinensis (LEFCH); test: Post-emergence treatment of LEFCH, visual assessment of weed control
Description: (§1) Seed of various weed species were sown and grown up to a 2-4 leaves stage. The said weeds are Echinochloa crus-galli (hereafter ECGCH), Leptochloa chinensis (hereafter LEFCH), Monochoria vaginalis (hereafter MOOVA) and Cyperus difformis (hereafter CYPDI).
(§2) Mixtures of pyribenzoxim and a partner herbicide were applied post emergence in a water diluted form using a laboratory sprayer. A visual assessment was made 28 days after treatment (DAT).
(§3) In the tables that follow ‘dose’ represents the dose rate in grammes per hectare of the active ingredient used; the figures for the weed control are percentage reductions in growth when compared with untreated controls; and CpdA represents pyribenzoxim.

[2] = tested on: Monochoria vaginalis (MOOVA); test: Post-emergence treatment of MOOVA, visual assessment of weed control
Description: as §1, §2, §3

[3] = tested on: Cyperus difformis (CYPDI); test: Post-emergence treatment of CYPDI, visual assessment of weed control
Description: as §1, §2, §3

[4] = tested on: Echinochloa crus-galli (ECGCH); test: Post-emergence treatment of ECGCH, visual assessment of weed control
Description: as §1, §2, §3

## CC(Oc1ccc(Oc2nc3ccc(Cl)cc3o2)cc1)C(=O)O (racemic) [fenoxaprop, [(±)-2-[4-(6-chloro-1,3-benzoxazol-2-yloxy)phenoxy]propionic acid]
[1]; Table 2, fenoxaprop 15 g/ha alone
  weed control, percentage reduction in growth vs untreated controls: 0%
[1]; Table 2, fenoxaprop 30 g/ha alone
  weed control, percentage reduction in growth vs untreated controls: 0%
[1]; Table 2, fenoxaprop 60 g/ha alone
  weed control, percentage reduction in growth vs untreated controls: 0%
[2]; Table 7, MOOVA (2 leaf), fenoxaprop 15 g/ha alone
  weed control, percentage reduction in growth vs untreated controls: 0%
[2]; Table 7, MOOVA (2 leaf), fenoxaprop 30 g/ha alone
  weed control, percentage reduction in growth vs untreated controls: 0%
[2]; Table 7, MOOVA (2 leaf), fenoxaprop 60 g/ha alone
  weed control, percentage reduction in growth vs untreated controls: 30%
[2]; Table 7, MOOVA (2 leaf), fenoxaprop 120 g/ha alone
  weed control, percentage reduction in growth vs untreated controls: 70%
[3]; Table 10, fenoxaprop 30 g/ha alone
  weed control, percentage reduction in growth vs untreated controls: 0%
[3]; Table 10, fenoxaprop 60 g/ha alone
  weed control, percentage reduction in growth vs untreated controls: 0%

## COc1cc(OC)nc(Oc2cccc(Oc3nc(OC)cc(OC)n3)c2C(=O)ON=C(c2ccccc2)c2ccccc2)n1 [CpdA, benzophenone O-{2,6-bis[(4,6-dimethoxypyrimidyl)oxy]benzoyl}oxime]
[4]; CpdA 7.5 g/ha alone
  weed control, percentage reduction in growth vs untreated controls: 20%
[1]; Table 2, CpdA 15 g/ha alone
  weed control, percentage reduction in growth vs untreated controls: 0%
[1]; Table 2, CpdA 30 g/ha alone
  weed control, percentage reduction in growth vs untreated controls: 30%
[1]; Table 2, CpdA 60 g/ha alone
  weed control, percentage reduction in growth vs untreated controls: 30%
[1]; Table 3, CpdA 15 g/ha alone
  weed control, percentage reduction in growth vs untreated controls: 0%
[1]; Table 3, CpdA 30 g/ha alone
  weed control, percentage reduction in growth vs untreated controls: 30%
[1]; Table 3, CpdA 60 g/ha alone
  weed control, percentage reduction in growth vs untreated controls: 30%
[1]; Table 4, LEFCH (2 leaf), CpdA 15 g/ha alone
  weed control, percentage reduction in growth vs untreated controls: 50%
[1]; Table 5, LEFCH (2 leaf), CpdA 7.5 g/ha alone
  weed control, percentage reduction in growth vs untreated controls: 30%
[1]; Table 5, LEFCH (2 leaf), CpdA 15 g/ha alone
  weed control, percentage reduction in growth vs untreated controls: 50%
[1]; Table 6, LEFCH (2 leaf), CpdA 7.5 g/ha alone
  weed control, percentage reduction in growth vs untreated controls: 30%
[1]; Table 6, LEFCH (2 leaf), CpdA 15 g/ha alone
  weed control, percentage reduction in growth vs untreated controls: 50%
[2]; Table 7, MOOVA (2 leaf), CpdA 15 g/ha alone
  weed control, percentage reduction in growth vs untreated controls: 0%
[2]; Table 7, MOOVA (2 leaf), CpdA 30 g/ha alone
  weed control, percentage reduction in growth vs untreated controls: 70%
[2]; Table 8, MOOVA (2 leaf), CpdA 15 g/ha alone
  weed control, percentage reduction in growth vs untreated controls: 100%
[2]; Table 8, MOOVA (2 leaf), CpdA 30 g/ha alone
  weed control, percentage reduction in growth vs untreated controls: 100%
[2]; Table 9, MOOVA (2 leaf), CpdA 7.5 g/ha alone
  weed control, percentage reduction in growth vs untreated controls: 100%
[3]; Table 10, CpdA 15 g/ha alone
  weed control, percentage reduction in growth vs untreated controls: 60%
[3]; Table 11, CpdA 7.5 g/ha alone
  weed control, percentage reduction in growth vs untreated controls: 0%

## COc1cc(OC)nc(NC(=O)NS(=O)(=O)Cc2ccccc2C(=O)O)n1 [bensulfuron, α-(4,6-dimethoxypyrimidin-2-ylcarbamoylsulfamoyl)-o-toluic acid]
[4]; bensulfuron 6.5 g/ha alone
  weed control, percentage reduction in growth vs untreated controls: 30%
[4]; bensulfuron 13 g/ha alone
  weed control, percentage reduction in growth vs untreated controls: 50%
[4]; bensulfuron 25 g/ha alone
  weed control, percentage reduction in growth vs untreated controls: 70%
[1]; Table 4, LEFCH (2 leaf), bensulfuron 25 g/ha alone
  weed control, percentage reduction in growth vs untreated controls: 0%
[1]; Table 4, LEFCH (2 leaf), bensulfuron 50 g/ha alone
  weed control, percentage reduction in growth vs untreated controls: 0%

## CC(C)N1C(=O)c2ccccc2NS1(=O)=O [bentazone, 3-isopropyl-1H-2,1,3-benzothiadiazin-4(3H)-one 2,2-dioxide]
[1]; Table 3, bentazone 375 g/ha alone
  weed control, percentage reduction in growth vs untreated controls: 0%
[1]; Table 3, bentazone 750 g/ha alone
  weed control, percentage reduction in growth vs untreated controls: 20%
[1]; Table 3, bentazone 1500 g/ha alone
  weed control, percentage reduction in growth vs untreated controls: 20%
[3]; Table 11, bentazone 375 g/ha alone
  weed control, percentage reduction in growth vs untreated controls: 80%
[3]; Table 11, bentazone 750 g/ha alone
  weed control, percentage reduction in growth vs untreated controls: 80%

## Cc1ccc(C(=O)COc2c(C(=O)c3ccc(Cl)c(C)c3Cl)c(C)nn2C)cc1 [benzofenap, 2-[4-(2,4-dichloro-m-toluoyl)-1,3-dimethylpyrazol-5-yloxy]-4-′methylacetophenone]
[1]; Table 6, LEFCH (2 leaf), benzofenap 600 g/ha alone
  weed control, percentage reduction in growth vs untreated controls: 10%
[1]; Table 6, LEFCH (2 leaf), benzofenap 1200 g/ha alone
  weed control, percentage reduction in growth vs untreated controls: 20%
[2]; Table 9, MOOVA (2 leaf), benzofenap 150 g/ha alone
  weed control, percentage reduction in growth vs untreated controls: 0%
[2]; Table 9, MOOVA (2 leaf), benzofenap 300 g/ha alone
  weed control, percentage reduction in growth vs untreated controls: 0%
